Patent US8952024B2, “Herbicidal pyrimidone derivatives” (E I du Pont de Nemours and Company, priority 2009, dated 2015)

Tests used:
Experiment in all cases: Test D pre-/postemergence plant response
Format in all cases: in vivo
[1] = test system: black mustard (Brassica nigra)
Description: (§1) Seeds of plant species selected from bermudagrass (Cynodon dactylon), Surinam grass (Brachiaria decumbens), large crabgrass (Digitaria sanguinalis), green foxtail (Setaria viridis), goosegrass (Eleusine indica), johnsongrass (Sorghum halepense), kochia (Kochia scoparia), morningglory (pitted morningglory, Ipomoea lacunosa), nutsedge (purple nutsedge, Cyperus rotundus), ragweed (common ragweed, Ambrosia elatior), black mustard (Brassica nigra), guineagrass (Panicum maximum), dallisgrass (Paspalum dilatatum), barnyardgrass (Echinochloa crus-galli), sandbur (southern sandbur, Cenchrus echinatus), sowthistle (common sowthistle, Sonchus oleraceous), prickly sida (Sida spinosa), Italian ryegrass (Lolium multiflorum), purslane (common purslane, Portulaca oleracea), signalgrass (broadleaf signalgrass, Brachiaria platyphylla), groundsel (common groundsel, Senecio vulgaris), chickweed (common chickweed, Stellaria media), dayflower (Virginia (VA) dayflower, Commelina virginica), bluegrass (annual bluegrass, Poa annua), naked crabgrass (Digitaria nuda), itchgrass (Rottboellia cochinchinensis), quackgrass (Elytrigia repens), field bindweed (Convolvulus arvensis), spanishneedles (Bidens bipinnata), mallow (common mallow, Malva sylvestris) and Russian thistle (Salsola kali), were planted into a blend of loam soil and sand and treated preemergence with test chemicals formulated in a non-phytotoxic solvent mixture which included a surfactant. At the same time, plants from these weed species were treated with postemergence applications of the test chemicals formulated in the same manner. Plants ranged in height from 2 to 18 cm (1- to 4-leaf stage) for postemergence treatments.
(§2) Treated plants and controls were maintained in a greenhouse for 14 to 21 days, after which time all species were visually evaluated and compared to controls. Plant response ratings, summarized in Table D, are based on a scale of 0 to 100 where 0 is no effect and 100 is complete control. A dash (-) response means no test result.

[2] = test system: dayflower (Virginia (VA) dayflower, Commelina virginica)
Description: as §1, §2

[3] = test system: Italian ryegrass (Lolium multiflorum)
Description: as §1, §2

[4] = test system: sowthistle (common sowthistle, Sonchus oleraceous)
Description: as §1, §2

[5] = test system: groundsel (common groundsel, Senecio vulgaris); conditions: Postemergence
Description: as §1, §2

[6] = test system: field bindweed (Convolvulus arvensis)
Description: as §1, §2

[7] = test system: itchgrass (Rottboellia cochinchinensis)
Description: as §1, §2

[8] = test system: prickly sida (Sida spinosa)
Description: as §1, §2

[9] = test system: purslane (common purslane, Portulaca oleracea)
Description: as §1, §2

[10] = test system: nutsedge (purple nutsedge, Cyperus rotundus)
Description: as §1, §2

[11] = Postemergence, 16 g ai/ha, scale 0 to 100
[12] = Postemergence, 125 g ai/ha, scale 0 to 100 (0 no effect, 100 complete control)
[13] = Postemergence, 62 g ai/ha, scale 0 to 100 (0 no effect, 100 complete control)
[14] = Preemergence, 16 g ai/ha, scale 0 to 100, 0 no effect, 100 complete control
[15] = Preemergence, 31 g ai/ha, scale 0 to 100 (0 no effect, 100 complete control)
[16] = Preemergence, 62 g ai/ha, scale 0 to 100
[17] = Preemergence, 125 g ai/ha, scale 0 to 100
[18] = Postemergence, 31 g ai/ha, scale 0 to 100

**Q.** What does the source list for `O=C1CCCC(O)=C1C(=O)c1cnc(-c2cccnc2)n(-c2ccccc2)c1=O` [Compound 113, 5-[(2-hydroxy-6-oxo-1-cyclohexen-1-yl)carbonyl]-3-phenyl-2-(3-pyridinyl)-4(3H)-pyrimidone]?
**A.** Plant response rating, Black Mustard [1, 11]: 100; Plant response rating, Black Mustard [1, 12]: 100; Plant response rating, Black Mustard [1, 13]: 100; Plant response rating, Black Mustard [1, 14]: 0; Plant response rating, Black Mustard [1, 15]: 0; Plant response rating, Black Mustard [1, 16]: 80; Plant response rating, Black Mustard [1, 17]: 100; Plant response rating, Dayflower, VA [2, 11]: 20; Plant response rating, Dayflower, VA [2, 18]: 40; Plant response rating, Dayflower, VA [2, 12]: 60; Plant response rating, Dayflower, VA [2, 13]: 60; Plant response rating, Dayflower, VA [2, 14]: 50; Plant response rating, Dayflower, VA [2, 15]: 50; Plant response rating, Dayflower, VA [2, 16]: 50; Plant response rating, Dayflower, VA [2, 17]: 65; Plant response rating, Ryegrass, Italian [3, 11]: 0; Plant response rating, Ryegrass, Italian [3, 18]: 20; Plant response rating, Ryegrass, Italian [3, 12]: 50; Plant response rating, Ryegrass, Italian [3, 13]: 35; Plant response rating, Ryegrass, Italian [3, 14]: 0; Plant response rating, Ryegrass, Italian [3, 15]: 0; Plant response rating, Ryegrass, Italian [3, 17]: 20; Plant response rating, Ryegrass, Italian ([3]; Preemergence, rate not given, scale 0 to 100, 0 no effect, 100 complete control): 0; Plant response rating, Sowthistle [4, 11]: 90; Plant response rating, Sowthistle [4, 18]: 95; Plant response rating, Sowthistle [4, 12]: 100; Plant response rating, Sowthistle [4, 13]: 100; Plant response rating, Sowthistle [4, 14]: 50; Plant response rating, Sowthistle [4, 15]: 75; Plant response rating, Sowthistle [4, 17]: 100; Plant response rating, Groundsel ([5]; 16 g ai/ha, scale 0 to 100): 90; Plant response rating, Groundsel ([5]; 31 g ai/ha, scale 0 to 100): 90; Plant response rating, Groundsel ([5]; 125 g ai/ha, scale 0 to 100 (0 no effect, 100 complete control)): 100; Plant response rating, Groundsel ([5]; 62 g ai/ha, scale 0 to 100 (0 no effect, 100 complete control)): 100; Plant response rating, Field Bindweed [6, 11]: 50; Plant response rating, Field Bindweed [6, 18]: 65; Plant response rating, Field Bindweed [6, 13]: 65; Plant response rating, Field Bindweed [6, 14]: 0; Plant response rating, Field Bindweed [6, 15]: 20; Plant response rating, Field Bindweed [6, 16]: 65; Plant response rating, Field Bindweed [6, 17]: 90; Plant response rating, Itchgrass [7, 11]: 0; Plant response rating, Itchgrass [7, 18]: 10; Plant response rating, Itchgrass [7, 12]: 70; Plant response rating, Itchgrass [7, 13]: 65; Plant response rating, Itchgrass [7, 14]: 0; Plant response rating, Itchgrass [7, 15]: 0; Plant response rating, Itchgrass [7, 16]: 0; Plant response rating, Itchgrass [7, 17]: 0; Plant response rating, Prickly Sida [8, 11]: 50; Plant response rating, Prickly Sida [8, 18]: 60; Plant response rating, Prickly Sida [8, 12]: 70; Plant response rating, Prickly Sida [8, 13]: 70; Plant response rating, Prickly Sida [8, 14]: 0; Plant response rating, Prickly Sida [8, 15]: 35; Plant response rating, Prickly Sida [8, 16]: 70; Plant response rating, Prickly Sida [8, 17]: 90; Plant response rating, Purslane [9, 11]: 30; Plant response rating, Purslane [9, 18]: 30; Plant response rating, Purslane [9, 12]: 75; Plant response rating, Purslane [9, 13]: 50; Plant response rating, Purslane [9, 14]: 90; Plant response rating, Purslane [9, 15]: 100; Plant response rating, Purslane [9, 16]: 100; Plant response rating, Purslane [9, 17]: 100; Plant response rating, Nutsedge, Purple [10, 11]: 0; Plant response rating, Nutsedge, Purple [10, 18]: 10; Plant response rating, Nutsedge, Purple [10, 12]: 50; Plant response rating, Nutsedge, Purple [10, 13]: 35; Plant response rating, Nutsedge, Purple [10, 14]: 0; Plant response rating, Nutsedge, Purple [10, 15]: 10; Plant response rating, Nutsedge, Purple [10, 16]: 20; Plant response rating, Nutsedge, Purple [10, 17]: 80
